{"source": "patent US9724331B2", "about": "“Use of maleimide derivatives for preventing and treating leukemia” (CENTOGENE AG, priority 2012, dated 2017)", "assay_type_in_all_cases": "cell-based, human", "key": {"SEM cells [1]": {"test_system": "SEM cells", "experiment": "Apoptosis and necrosis, Annexin V FITC / PI flow cytometry", "experimental": "(§1) Apoptosis and necrosis were analyzed by staining the cells with Annexin V FITC (BD Biosciences, Heidelberg, Germany) and propidium iodide (PI) (Sigma Aldrich, St. Louis, USA). Results were assessed by flow cytometry.\n(§2) (A) Cells were treated with PDA-66 for up to 72 h and stained with Annexin V FITC and Propidium iodide (PI). Rates of early apoptotic (FITC^+, PI^−) and late apoptotic and necrotic (FITC^+, PI^+) cells were measured by flow cytometry. Significant induction of apoptosis could be observed in all cell lines after 48 h of incubation as well as tendential induction of necrosis at both points of time. […] (B) Induction of apoptosis was confirmed by Western blot. Cells were treated with different concentrations of PDA-66 and total cell lysates (25 μg) were analyzed by Western blot to detect cleavage of Caspase 3, 7 and PARP. GAPDH was used as loading control.\n(§3) More specifically, 5×10^5 cells were harvested and washed twice (180 g, 10 min, 4° C.) with PBS. After resuspending the cells in 100 μl of binding buffer (1×) 4 μl of Annexin V FITC were added and incubated for 15 min at room temperature. Following addition of 400 μl binding buffer for a final volume of 500 μl the cells were stained with PI (0.6 μg/ml) immediately before measurement. As controls unstained and single stained cells were included in each experiment. Measurements were performed using FACSCalibur (Becton and Dickinson, Heidelberg, Germany) and data analyses were carried out with CellQuest software (Becton and Dickinson, Heidelberg, Germany)."}, "Molt-4 cells [2]": {"test_system": "Molt-4 cells", "experiment": "Apoptosis and necrosis, Annexin V FITC / PI flow cytometry", "experimental": "as §1, §2, §3"}, "RS4;11 cells [3]": {"test_system": "RS4;11 cells", "experiment": "Apoptosis and necrosis, Annexin V FITC / PI flow cytometry", "experimental": "as §1, §2, §3"}, "Jurkat cells [4]": {"test_system": "Jurkat cells", "experiment": "Apoptosis and necrosis, Annexin V FITC / PI flow cytometry", "experimental": "as §1, §2, §3"}, "SEM cells [5]": {"test_system": "SEM cells", "experiment": "Cell cycle analysis, propidium iodide staining, flow cytometry", "experimental": "(§4) After treatment cells were harvested and washed twice in PBS. Cells were fixed with 70% ethanol and incubated with 1 mg/ml Ribonuclease A (Sigma-Aldrich, St. Louis, USA) for 30 min at 37° C. After washing the cells twice in PBS, they were stained with PI (50 μg/ml) and DNA content was determined by flow cytometry. All cell lines were incubated with PDA-66 and cell cycle distribution was determined using Propidium iodide staining.\n(§5) The treatment with PDA-66 influenced the four cell lines differently. […] G2 arrest could be detected in RS4;11 and Molt-4 cells after 48 h of treatment. Treatment of Jurkat cells induced a decrease of cells in G0/G1 phase in favor of cells in S phase."}, "Molt-4 cells [6]": {"test_system": "Molt-4 cells", "experiment": "Cell cycle analysis, propidium iodide staining, flow cytometry", "experimental": "as §4, §5"}, "RS4;11 cells [7]": {"test_system": "RS4;11 cells", "experiment": "Cell cycle analysis, propidium iodide staining, flow cytometry", "experimental": "as §4, §5"}, "Jurkat cells [8]": {"test_system": "Jurkat cells", "experiment": "Cell cycle analysis, propidium iodide staining, flow cytometry", "details": "1 μM PDA-66, mean±SD", "experimental": "as §4, §5"}, "SEM cells [9]": {"test_system": "SEM cells", "experiment": "May Grunwald-Giemsa staining, morphology by light microscopy", "details": "1 μM PDA-66, 48 h, vs. DMSO treated control cells", "experimental": "(§6) Cytospins of SEM and Jurkat cells were stained with May Grunwald-Giemsa Staining after 48 h of incubation with 1 μM PDA-66 and DMSO, respectively\n(§7) After treatment with 1 μM PDA-66 3×10^4 cells were brought onto object slides with Cytospin 3 centrifuge (Shandon, Frankfurt/Main, Germany). Subsequently cells were stained using May-Grunwald-Giemsa staining. Briefly, slides were incubated in May-Grunwald solution (Merck, Darmstadt, Germany) for 6 min, then washed with tap water, incubated in Giemsa solution (Merck, Darmstadt, Germany) for 20 min and washed in tap water again. After letting the slides dry the cells were analyzed by Nikon Eclipse E 600 light microscope and pictures were taken with NIS Elements software (Nikon, Düsseldorf, Germany)."}, "Jurkat cells [10]": {"test_system": "Jurkat cells", "experiment": "May Grunwald-Giemsa staining, morphology by light microscopy", "details": "1 μM PDA-66, 48 h, vs. DMSO treated control cells", "experimental": "as §6, §7"}, "[11]": {"test_system": "PI3K/Akt and Wnt/β-catenin pathway in Jurkat cells", "experiment": "Western blot, PI3K/Akt and Wnt/β-catenin pathway", "experimental": "(§8) After treatment with PDA-66 and DMSO, respectively, cells were lyzed and protein expression analyzed with Western blot.\n(§9) Protein extraction and Western blot was performed as described above. Following polyclonal antibodies were used: rabbit anti-cleaved caspase 3, rabbit anti-caspase 3, rabbit anti-cleaved PARP, rabbit anti-PARP, rabbit anti-cleaved caspase 7, rabbit anti-caspase 7, rabbit anti-pAktThr308, rabbit anti-pAktSer473, rabbit anti-Akt, rabbit anti-β-catenin, rabbit anti-pGSK3βSer9, rabbit anti-GSK3β, rabbit anti-p4EBP-1Ser65 and rabbit anti-4EBP-1 (all Cell Signaling Frankfurt/Main, Germany). Blots were incubated with mouse anti-GAPDH antibody (Invitrogen, Carlsbad, USA) as loading control."}, "[12]": {"test_system": "PI3K/Akt and Wnt/β-catenin pathway in SEM cells", "experiment": "Western blot, PI3K/Akt and Wnt/β-catenin pathway", "experimental": "as §8, §9"}, "[13]": {"test_system": "PI3K/Akt and Wnt/β-catenin pathway in Molt-4 cells", "experiment": "Western blot, PI3K/Akt and Wnt/β-catenin pathway", "details": "incubation of 4 and 24 h", "experimental": "as §8, §9"}, "[14]": {"test_system": "PI3K/Akt and Wnt/β-catenin pathway in RS4;11 cells", "experiment": "Western blot, PI3K/Akt and Wnt/β-catenin pathway", "details": "incubation of 4 and 24 h", "experimental": "as §8, §9"}, "[15]": {"details": "SEM cells shown exemplarily (FIG. 6A)"}, "[16]": {"details": "SEM cells, incubation of 4 and 24 h"}}, "note": "“Also recorded” adds a separate entry of the source.", "data": [{"smiles": "CC(=O)c1ccc(C2=C(c3c(C)[nH]c4ccccc34)C(=O)N(C)C2=O)cc1", "note": "[PDA-66, 3-(4-Acetylphenyl)-1-methyl-4-(2-methyl-1H-indol-3-yl)-1H-pyrrole-2,5-dione]", "values": [{"measurement": "necrosis", "setting": "SEM cells [1]; 1 μM PDA-66, 48 h", "result": "tendential increase"}, {"measurement": "apoptosis (early apoptotic cells, FITC+, PI−)", "setting": "SEM cells [1]; 1 μM PDA-66, 48 h, mean±SD", "result": "10.5±1.3", "unit": "%"}, {"measurement": "apoptosis (early apoptotic cells, FITC+, PI−)", "setting": "SEM cells [1]; 1 μM PDA-66, 72 h, mean±SD", "result": "5.6±1.6", "unit": "%"}, {"measurement": "necrosis rate (late apoptotic and necrotic cells, FITC+, PI+)", "setting": "SEM cells [1]; 1 μM PDA-66, 72 h, mean±SD", "result": "27.8±5.81", "unit": "%"}, {"measurement": "necrosis", "setting": "Molt-4 cells [2]; 1 μM PDA-66, 48 h", "result": "tendential increase"}, {"measurement": "apoptosis (early apoptotic cells, FITC+, PI−)", "setting": "Molt-4 cells [2]; 1 μM PDA-66, 48 h, mean±SD", "result": "16.3±5.1", "unit": "%"}, {"measurement": "apoptosis (early apoptotic cells, FITC+, PI−)", "setting": "Molt-4 cells [2]; 1 μM PDA-66, 72 h, mean±SD", "result": "20.1±6.6", "unit": "%"}, {"measurement": "necrosis rate (late apoptotic and necrotic cells, FITC+, PI+)", "setting": "Molt-4 cells [2]; 1 μM PDA-66, 72 h, mean±SD", "result": "46.7±15.6", "unit": "%"}, {"measurement": "necrosis", "setting": "RS4;11 cells [3]; 1 μM PDA-66, 48 h", "result": "tendential increase"}, {"measurement": "apoptosis (early apoptotic cells, FITC+, PI−)", "setting": "RS4;11 cells [3]; 1 μM PDA-66, 48 h, mean±SD", "result": "7.4±1.1", "unit": "%"}, {"measurement": "apoptosis (early apoptotic cells, FITC+, PI−)", "setting": "RS4;11 cells [3]; 1 μM PDA-66, 72 h, mean±SD", "result": "6.4±3.6", "unit": "%"}, {"measurement": "necrosis rate (late apoptotic and necrotic cells, FITC+, PI+)", "setting": "RS4;11 cells [3]; 1 μM PDA-66, 72 h, mean±SD", "result": "26.5±10.2", "unit": "%"}, {"measurement": "necrosis", "setting": "Jurkat cells [4]; 1 μM PDA-66, 48 h", "result": "tendential increase"}, {"measurement": "apoptosis (early apoptotic cells, FITC+, PI−)", "setting": "Jurkat cells [4]; 1 μM PDA-66, 48 h, mean±SD", "result": "8.3±1.9", "unit": "%"}, {"measurement": "apoptosis (early apoptotic cells, FITC+, PI−)", "setting": "Jurkat cells [4]; 1 μM PDA-66, 72 h, mean±SD", "result": "6.1±0.7", "unit": "%"}, {"measurement": "necrosis rate (late apoptotic and necrotic cells, FITC+, PI+)", "setting": "Jurkat cells [4]; 1 μM PDA-66, 72 h, mean±SD", "result": "28.0±13.4", "unit": "%"}, {"measurement": "amount of cells in G0/G1", "setting": "SEM cells [5]; 0.5 μM PDA-66, 48 h, mean±SD", "result": "69.3±2.7", "unit": "%"}, {"measurement": "effect on cell cycle", "setting": "SEM cells [5]; 1 μM PDA-66, 48 h", "result": "did not affect the cell cycle significantly"}, {"measurement": "amount of cells in G0/G1 phase", "setting": "Molt-4 cells [6]; 1 μM PDA-66, 48 h, mean±SD", "result": "45.0±7.3", "unit": "%"}, {"measurement": "amount of cells in G2 phase", "setting": "Molt-4 cells [6]; 1 μM PDA-66, 48 h, mean±SD", "result": "41.0±5.8", "unit": "%"}, {"measurement": "cells in G0/G1 phase", "setting": "Molt-4 cells [6]; smaller dosages than 1 μM", "result": "significant increase"}, {"measurement": "amount of cells in G0/G1 phase", "setting": "RS4;11 cells [7]; 1 μM PDA-66, 48 h, mean±SD", "result": "47.3±2.7", "unit": "%"}, {"measurement": "amount of cells in G2 phase", "setting": "RS4;11 cells [7]; 1 μM PDA-66, 48 h, mean±SD", "result": "42.1±4.4", "unit": "%"}, {"measurement": "cells in G0/G1 phase", "setting": "RS4;11 cells [7]; smaller dosages than 1 μM", "result": "significant increase"}, {"measurement": "amount of cells in G0/G1 phase", "setting": "Jurkat cells [8]", "result": "47.3±4.3", "unit": "%"}, {"measurement": "amount of cells in S phase", "setting": "Jurkat cells [8]", "result": "20.0±1.1", "unit": "%"}, {"measurement": "morphology", "setting": "SEM cells [9]", "result": "condensation of chromatin in the nucleus, karyorrhexis and an increasing amount of vacuoles and cell debris"}, {"measurement": "morphology", "setting": "Jurkat cells [10]", "result": "condensation of chromatin in the nucleus, karyorrhexis and an increasing amount of vacuoles and cell debris"}, {"measurement": "expression of p4EBP-1Ser65", "setting": "[11]; incubation of 4 and 24 h", "result": "decrease"}, {"measurement": "expression of total 4EBP-1", "setting": "[11]; incubation of 4 and 24 h", "result": "decrease"}, {"measurement": "pAktSer473", "setting": "[11]; incubation of 24 h", "result": "not confirmed by a rise"}, {"measurement": "pAktThr308", "setting": "[11]; incubation of 24 h", "result": "increase"}, {"measurement": "expression of total Akt", "setting": "[12]; [15]", "result": "no influence"}, {"measurement": "expression of total GSK3β", "setting": "[12]; [15]", "result": "no influence"}, {"measurement": "expression of β-catenin", "setting": "[12]; [15]", "result": "no influence"}, {"measurement": "pGSK3βSer9", "setting": "[12]; SEM cells, after 4 h", "result": "small decrease; also recorded: slight decrease"}, {"measurement": "expression of p4EBP-1Ser65", "setting": "[12]; [16]", "result": "decrease"}, {"measurement": "expression of total 4EBP-1", "setting": "[12]; [16]", "result": "decrease"}, {"measurement": "pAktSer473", "setting": "[12]; SEM cells, incubation of 24 h", "result": "not confirmed by an increase; also recorded: not confirmed by a rise"}, {"measurement": "pAktThr308", "setting": "[12]; SEM cells, incubation of 24 h", "result": "slight increase"}, {"measurement": "expression of p4EBP-1Ser65", "setting": "[13]", "result": "increased expression; also recorded: increase"}, {"measurement": "expression of p4EBP-1Ser65", "setting": "[14]", "result": "decrease"}, {"measurement": "expression of total 4EBP-1", "setting": "[14]", "result": "decrease"}]}]}
